Experimental data published in patent US20260258036A1, “INHIBITORS OF HUMAN ALDOSTERONE SYNTHASE (CYP11B2)” («TARGET MEDICALS» LIMITED LIABILITY COMPANY, priority 2022, published 2026).
Where two headings read alike, the source gives them in different places.

Molecular target: T1, recombinant CYP11B2 (Homo sapiens, UniProt P19099)
T1 sequence (P19099 25-503): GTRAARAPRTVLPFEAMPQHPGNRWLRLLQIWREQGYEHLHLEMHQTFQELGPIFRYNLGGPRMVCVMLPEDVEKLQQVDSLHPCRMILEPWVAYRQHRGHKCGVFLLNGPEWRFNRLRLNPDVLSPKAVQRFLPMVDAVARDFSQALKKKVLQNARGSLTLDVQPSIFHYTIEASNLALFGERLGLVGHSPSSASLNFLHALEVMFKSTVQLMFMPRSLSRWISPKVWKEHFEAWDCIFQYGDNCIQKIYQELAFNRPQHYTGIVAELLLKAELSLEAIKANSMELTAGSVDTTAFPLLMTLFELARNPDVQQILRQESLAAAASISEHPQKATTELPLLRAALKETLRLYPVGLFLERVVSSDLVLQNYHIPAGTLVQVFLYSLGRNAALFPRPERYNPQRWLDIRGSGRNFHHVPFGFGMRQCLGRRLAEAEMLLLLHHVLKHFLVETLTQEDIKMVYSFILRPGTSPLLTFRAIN
Test: Inhibition of CYP11B2 activity in a reconstructed enzyme system (HPLC with UV detector)
Format: biochemical
Conditions: test compound final concentration ≤2 μM, corticosterone substrate, 30 minutes at 37° C., read-out: Level of CYP11B2 activity inhibition
Method: The authors of the present invention investigated the activity of the compounds according to the invention as inhibitors of CYP11 B2 when analyzed in a reconstructed system containing 0.5 μm recombinant CYP1 1B2, 0.3 μm human adrenodoxin reductase, 2 μm human adrenodoxin, 100 μm corticosterone as a control reaction to detect the formation of a product with using an HPLC system with a UV detector. The test compound is added to the reaction mixture to a final concentration of ≤2 μM. The concentrated protein mixture was diluted with buffer to a final volume of 0.5 ml, pre-incubated for 10 min at 37° C., followed by the addition of the substrate. Reactions are initiated by adding NADPH (nicotinamide adenine dinucleotide phosphate) to a final concentration of 0.25 mM with a regenerating system (glucose-6-phosphate and glucose-6-phosphate dehydrogenase) in 25 mM potassium phosphate buffer, pH 7.4, containing 0.1 mM DTT (dithiothreitol), 0.1% Tween-20.4 mM MgCl2 and incubated at 37° C. After 30 minutes of incubation, the reaction is stopped by adding 5 ml of dichloromethane. The organic phase is isolated by centrifugation, evaporation, dissolution in ethanol and transferred to a vial for HPLC studies. A C18 Luna 100 Å 250×4, 6 mm column was used on an Agilent Technologies 1200 series instrument (USA) with ethanol as the mobile phase.
Activity (a) is calculated as the amount of product in nmol per minute per 1 nmol of CYP.
where k is the correction factor (k=1 is used as the molar extinction coefficients of steroid substrates and products similar at a detection wavelength of 254 nm), As is the peak area of the substrate, cs is the concentration of the substrate, Ap is the peak area of the product, ce is the concentration of CYP (cytochrome P450), t is the reaction time.
The level of inhibition of CYP11 B2 activity is expressed as a percentage, where 0% is defined as no inhibition in reactions without test compound and 100% is absolute inhibition by test compound.

Row | SMILES | inhibition at 2 µM (compounds 1_xx) [%] | inhibition at 2 µM (compounds 2_xx, 3_xx, 4_01) [%]
1 | CN1CCN(c2c(F)cc(S(=O)(=O)n3ccc4c(-c5ccc(C#N)nc5)cncc43)cc2F)CC1 [Compound 1_28, 5-(1-((3,5-difluoro-4-(4-methylpiperazin-1-yl)phenyl)sulfonyl)-1H-pyrrolo[2,3-c]pyridin-4-yl)picolinonitrile] | 50 to 100 | –
2 | CN1CCN(c2c(F)cc(S(=O)(=O)n3ccc4c(-c5ncc(F)cn5)cncc43)cc2F)CC1 [Compound 1_29, 1-((3,5-difluoro-4-(4-methylpiperazin-1-yl)phenyl)sulfonyl)-4-(5-fluoropyrimidin-2-yl)-1H-pyrrolo[2,3-c]pyridine] | 50 to 100 | –
3 | CNc1cnc(-c2cncc3c2ccn3S(=O)(=O)c2cc(F)c(N3CCN(C)CC3)c(F)c2)cn1 [Compound 1_30, 5-(1-((3,5-difluoro-4-(4-methylpiperazin-1-yl)phenyl)sulfonyl)-1H-pyrrolo[2,3-c]pyridin-4-yl)-N-methylpyrazin-2-amine] | 1 to 100 | –
4 | CN1CCN(c2c(F)cc(S(=O)(=O)n3ccc4c(-c5ccc(C6CC6)cn5)cncc43)cc2F)CC1 [Compound 1_31, 4-(5-cyclopropylpyridin-2-yl)-1-((3,5-difluoro-4-(4-methylpiperazin-1-yl)phenyl)sulfonyl)-1H-pyrrolo[2,3-c]pyridine] | 50 to 100 | –
5 | Cc1cnc(-c2cncc3c2ccn3S(=O)(=O)c2cc(F)c(N)c(F)c2)cn1 [Compound 1_32, 2,6-difluoro-4-((4-(5-methylpyrazin-2-yl)-1H-pyrrolo[2,3-c]pyridin-1-yl)sulfonyl)aniline] | 50 to 100 | –
6 | Cc1ccc(-c2cncc3c2ccn3S(=O)(=O)c2cc(F)c(N(C)C)c(F)c2)nc1 [Compound 1_33, 2,6-difluoro-N,N-dimethyl-4-((4-(5-methylpyridin-2-yl)-1H-pyrrolo[2,3-c]pyridin-1-yl)sulfonyl)aniline] | 50 to 100 | –
7 | CN1CCN(c2c(F)cc(S(=O)(=O)n3ccc4c(-c5ccccn5)cncc43)cc2F)CC1=O [Compound 2_01, 4-(2,6-difluoro-4-((4-(pyridin-2-yl)-1H-pyrrolo[2,3-c]pyridin-1-yl)sulfonyl)phenyl)-1-methylpiperazin-2-one] | – | 35 to 100
8 | O=S(=O)(c1cc(F)c(N2CCN(CC3CC3)CC2)c(F)c1)n1ccc2c(-c3ccccn3)cncc21 [Compound 2_02, 1-((4-(4-(cyclopropylmethyl)piperazin-1-yl)-3,5-difluorophenyl)sulfonyl)-4-(pyridin-2-yl)-1H-pyrrolo[2,3-c]pyridine] | – | 35 to 100
9 | CN1CC2CN(c3c(F)cc(S(=O)(=O)n4ccc5c(-c6ccc(C(=O)NC(C)(C)C)nc6)cncc54)cc3F)CC2C1 (stereo not shown) [Compound 2_03, N-(tert-butyl)-5-(1-((3,5-difluoro-4-(5-methylhexahydropyrrolo[3,4-c]pyrrol-2(1H)-yl)phenyl)sulfonyl)-1H-pyrrolo[2,3-c]pyridin-4-yl)picolinamide] | – | 35 to 100
10 | O=S(=O)(c1cc(F)c(N2CCNCC2)c(F)c1)n1ccc2c(-c3ccccn3)cncc21 [Compound 3_01, 1-((3,5-difluoro-4-(piperazin-1-yl)phenyl)sulfonyl)-4-(pyridin-2-yl)-1H-pyrrolo[2,3-c]pyridine] | – | 20 to 100
11 | CNc1ccc(-c2cncc3c2ccn3S(=O)(=O)c2cc(F)c(N3CCN(C)CC3)c(F)c2)nc1 [Compound 3_02, 6-(1-((3,5-difluoro-4-(4-methylpiperazin-1-yl)phenyl)sulfonyl)-1H-pyrrolo[2,3-c]pyridin-4-yl)-N-methylpyridin-3-amine] | – | 35 to 100
12 | CNc1ccc(-c2cncc3c2ccn3S(=O)(=O)c2cc(F)c(N3CCN(C)CC3)c(F)c2)cn1 [Compound 3_03, 5-(1-((3,5-difluoro-4-(4-methylpiperazin-1-yl)phenyl)sulfonyl)-1H-pyrrolo[2,3-c]pyridin-4-yl)-N-methylpyridin-2-amine] | – | 20 to 100
13 | CN1CCN(c2c(F)cc(S(=O)(=O)n3ccc4c(-c5cnc(C#N)cn5)cncc43)cc2F)CC1 [Compound 3_05, 5-(1-((3,5-difluoro-4-(4-methylpiperazin-1-yl)phenyl)sulfonyl)-1H-pyrrolo[2,3-c]pyridin-4-yl)pyrazine-2-carbonitrile] | – | 35 to 100
14 | CN1CCN(c2c(F)cc(S(=O)(=O)n3ccc4c(-c5ccc(C#N)cn5)cncc43)cc2F)CC1 [Compound 3_06, 6-(1-((3,5-difluoro-4-(4-methylpiperazin-1-yl)phenyl)sulfonyl)-1H-pyrrolo[2,3-c]pyridin-4-yl)nicotinonitrile] | – | 35 to 100
15 | CNc1ccc(-c2cncc3c2ccn3S(=O)(=O)c2cc(F)c(N3CCN(C)CC3)c(F)c2)nn1 [Compound 3_07, 6-(1-((3,5-difluoro-4-(4-methylpiperazin-1-yl)phenyl)sulfonyl)-1H-pyrrolo[2,3-c]pyridin-4-yl)-N-methylpyridazin-3-amine] | – | 35 to 100
16 | CNc1cnc(-c2cncc3c2ccn3S(=O)(=O)c2cc(F)c(N3CCN(C)CC3)c(F)c2)nc1 [Compound 3_08, 2-(1-((3,5-difluoro-4-(4-methylpiperazin-1-yl)phenyl)sulfonyl)-1H-pyrrolo[2,3-c]pyridin-4-yl)-N-methylpyrimidin-5-amine] | – | 20 to 100
17 | CN1CCN(c2c(F)cc(S(=O)(=O)n3ccc4c(-c5cnc(C#N)nc5)cncc43)cc2F)CC1 [Compound 3_09, 5-(1-((3,5-difluoro-4-(4-methylpiperazin-1-yl)phenyl)sulfonyl)-1H-pyrrolo[2,3-c]pyridin-4-yl)pyrimidine-2-carbonitrile] | – | 35 to 100
18 | CN1CCN(c2c(F)cc(S(=O)(=O)n3ccc4c(-c5ccc(C#N)nn5)cncc43)cc2F)CC1 [Compound 3_10, 6-(1-((3,5-difluoro-4-(4-methylpiperazin-1-yl)phenyl)sulfonyl)-1H-pyrrolo[2,3-c]pyridin-4-yl)pyridazine-3-carbonitrile] | – | 35 to 100
19 | CC(C)N1CCN(c2c(F)cc(S(=O)(=O)n3ccc4c(-c5ccccn5)cncc43)cc2F)CC1 [Compound 3_11, 1-((3,5-difluoro-4-(4-isopropylpiperazin-1-yl)phenyl)sulfonyl)-4-(pyridin-2-yl)-1H-pyrrolo[2,3-c]pyridine] | – | 35 to 100
20 | O=S(=O)(c1cc(F)c(N2CCN(C3CC3)CC2)c(F)c1)n1ccc2c(-c3ccccn3)cncc21 [Compound 3_12, 1-((4-(4-cyclopropylpiperazin-1-yl)-3,5-difluorophenyl)sulfonyl)-4-(pyridin-2-yl)-1H-pyrrolo[2,3-c]pyridine] | – | 20 to 100
21 | CN1CCCN(c2c(F)cc(S(=O)(=O)n3ccc4c(-c5ccccn5)cncc43)cc2F)CC1 [Compound 3_13, 1-((3,5-difluoro-4-(4-methyl-1,4-diazepan-1-yl)phenyl)sulfonyl)-4-(pyridin-2-yl)-1H-pyrrolo[2,3-c]pyridine] | – | 35 to 100
22 | O=S(=O)(c1cc(F)c(N2CCCNCC2)c(F)c1)n1ccc2c(-c3ccccn3)cncc21 [Compound 3_14, 1-((4-(1,4-diazepan-1-yl)-3,5-difluorophenyl)sulfonyl)-4-(pyridin-2-yl)-1H-pyrrolo[2,3-c]pyridine] | – | 35 to 100
23 | NC1CCN(c2c(F)cc(S(=O)(=O)n3ccc4c(-c5ccccn5)cncc43)cc2F)CC1 [Compound 3_15, 1-(2,6-difluoro-4-((4-(pyridin-2-yl)-1H-pyrrolo[2,3-c]pyridin-1-yl)sulfonyl)phenyl)piperidin-4-amine] | – | 35 to 100
24 | CN1CC2(C1)CN(c1c(F)cc(S(=O)(=O)n3ccc4c(-c5ccccn5)cncc43)cc1F)C2 [Compound 3_16, 1-((3,5-difluoro-4-(6-methyl-2,6-diazaspiro[3.3]heptan-2-yl)phenyl)sulfonyl)-4-(pyridin-2-yl)-1H-pyrrolo[2,3-c]pyridine] | – | 35 to 100
25 | CN1CC2CC1CN2c1c(F)cc(S(=O)(=O)n2ccc3c(-c4ccccn4)cncc32)cc1F (stereo not shown) [Compound 3_17, 1-((3,5-difluoro-4-(5-methyl-2,5-diazabicyclo[2.2.1]heptan-2-yl)phenyl)sulfonyl)-4-(pyridin-2-yl)-1H-pyrrolo[2,3-c]pyridine] | – | 35 to 100
